Assay results published in PubChem BioAssay AID328 (DTP/NCI, 2004).
“And” between values parts separate entries of the source, which are not always exact repeats. Equal entries are not always repeated. Inconclusive results and toxic doses are left out.

System: BDF1 mice, P388 leukemia ip, median survival T/C
Assay: NCI In Vivo Anticancer Drug Screen. Data for tumor model P388 Leukemia (intraperitoneal) in B6D2F1 (BDF1) mice
Settings: endpoint: median survival time, higher = longer survival
How it was run: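 Read-out is survival of treated animals expressed relative to the vehicle group, as a T/C ratio.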

[1] = dose: 50.0 mg/kg/injection, schedule: Q01DX009 (ip), vehicle: saline
[2] = dose: 100.0 mg/kg/injection, schedule: Q01DX009 (ip), vehicle: saline
[3] = dose: 200.0 mg/kg/injection, schedule: Q01DX009 (ip), vehicle: saline
[4] = dose: 600.0 mg/kg/injection, schedule: Q04DX003 (ip), vehicle: saline
[5] = dose: 100.0 mg/kg/injection, schedule: Q01DX009 (ip), vehicle: saline with Tween-80
[6] = dose: 100.0 mg/kg/injection, schedule: Q04DX003 (ip), vehicle: saline with Tween-80
[7] = dose: 200.0 mg/kg/injection, schedule: Q01DX009 (ip), vehicle: saline with Tween-80
[8] = dose: 200.0 mg/kg/injection, schedule: Q04DX003 (ip), vehicle: saline with Tween-80
[9] = dose: 400.0 mg/kg/injection, schedule: Q01DX009 (ip), vehicle: saline with Tween-80
[10] = dose: 400.0 mg/kg/injection, schedule: Q04DX003 (ip), vehicle: saline with Tween-80
[11] = dose: 50.0 mg/kg/injection, schedule: Q04DX003 (ip), vehicle: Klucel (hydroxypropylcellulose) (HPC)
[12] = dose: 50.0 mg/kg/injection, schedule: Q01DX009 (ip), vehicle: saline with Tween-80
[13] = dose: 400.0 mg/kg/injection, schedule: Q04DX003 (ip), vehicle: saline

O=C(O)CC(NC(=O)CP(=O)(O)O)C(=O)O (configuration not stated)
T/C [1]: 117 % of control
T/C [2]: 118 % of control
T/C (dose: 100.0 mg/kg/injection, schedule: Q01DX009 (ip), vehicle: water): 100 % of control
T/C (dose: 180.0 mg/kg/injection, schedule: Q04DX003 (ip), vehicle: saline): 118 % of control
T/C [3]: 157 % of control
T/C (dose: 200.0 mg/kg/injection, schedule: Q01DX009 (ip), vehicle: water): 109 % of control
T/C (dose: 300.0 mg/kg/injection, schedule: Q01DX009 (ip), vehicle: saline): 109 % of control
T/C (dose: 300.0 mg/kg/injection, schedule: Q01DX009 (ip), vehicle: water): 106 % of control
T/C (dose: 300.0 mg/kg/injection, schedule: Q04DX003 (ip), vehicle: saline): 109 % of control
T/C (dose: 400.0 mg/kg/injection, schedule: Q01DX009 (ip), vehicle: saline): 96 % of control
T/C (dose: 500.0 mg/kg/injection, schedule: Q04DX003 (ip), vehicle: saline): 122 % of control
T/C [4]: 118 % of control
T/C (dose: 750.0 mg/kg/injection, schedule: Q04DX003 (ip), vehicle: saline): 163 % of control
T/C (dose: 833.0 mg/kg/injection, schedule: Q04DX003 (ip), vehicle: saline): 100 % of control
T/C (dose: 1000.0 mg/kg/injection, schedule: Q04DX003 (ip), vehicle: saline): 85 % of control
T/C (dose: 1500.0 mg/kg/injection, schedule: Q04DX003 (ip), vehicle: saline): 64 % of control

OC(CCl)COCC#Cc1ccccc1 (configuration not stated)
T/C (dose: 25.0 mg/kg/injection, schedule: Q04DX003 (ip), vehicle: saline with Tween-80): 105 % of control
T/C (dose: 50.0 mg/kg/injection, schedule: Q04DX003 (ip), vehicle: saline with Tween-80): 100 % of control
T/C [5]: 95 % of control
T/C [6]: 115 % of control
T/C [7]: 112 % of control
T/C [8]: 95 % of control
T/C [9]: 116 % of control
T/C [10]: 95 % of control

CC(C)(C)c1ccc(Sc2cccc3c2C(=O)c2c(Cl)cccc2C3=O)cc1
T/C [6]: 90 % of control
T/C [8]: 88 % of control
T/C [10]: 92 % of control

Cc1nc2ncn(C)c2nc1C
T/C (dose: 25.0 mg/kg/injection, schedule: Q01DX001 (ip), vehicle: saline sonified): 105 % of control
T/C (dose: 50.0 mg/kg/injection, schedule: Q01DX001 (ip), vehicle: saline sonified): 100 % of control
T/C (dose: 100.0 mg/kg/injection, schedule: Q01DX001 (ip), vehicle: saline sonified): 105 % of control

CN(N=O)C(=O)NC(N)=O
T/C (dose: 1.5 mg/kg/injection, schedule: Q01DX009 (ip), vehicle: saline): 99 % of control
T/C (dose: 2.3 mg/kg/injection, schedule: Q01DX009 (ip), vehicle: saline): 115 % of control
T/C (dose: 5.4 mg/kg/injection, schedule: Q01DX009 (ip), vehicle: saline): 152 % of control
T/C (dose: 11.0 mg/kg/injection, schedule: Q01DX009 (ip), vehicle: Klucel (hydroxypropylcellulose) (HPC)): 161 % of control
T/C (dose: 12.0 mg/kg/injection, schedule: Q04DX003 (ip), vehicle: Klucel (hydroxypropylcellulose) (HPC)): 118 % of control
T/C (dose: 12.5 mg/kg/injection, schedule: Q01DX009 (ip), vehicle: Klucel (hydroxypropylcellulose) (HPC)): 155 % of control
T/C (dose: 12.5 mg/kg/injection, schedule: Q01DX009 (ip), vehicle: saline): 165 % of control and 174 % of control
T/C (dose: 16.0 mg/kg/injection, schedule: Q01DX009 (ip), vehicle: Klucel (hydroxypropylcellulose) (HPC)): 186 % of control
T/C (dose: 16.5 mg/kg/injection, schedule: Q01DX009 (ip), vehicle: Klucel (hydroxypropylcellulose) (HPC)): 250 % of control and 161 % of control
T/C (dose: 18.0 mg/kg/injection, schedule: Q01DX009 (ip), vehicle: saline): 170 % of control
T/C (dose: 22.0 mg/kg/injection, schedule: Q04DX003 (ip), vehicle: Klucel (hydroxypropylcellulose) (HPC)): 122 % of control
T/C (dose: 25.0 mg/kg/injection, schedule: Q01DX009 (ip), vehicle: Klucel (hydroxypropylcellulose) (HPC)): 159 % of control and 207 % of control
T/C (dose: 37.5 mg/kg/injection, schedule: Q01DX009 (ip), vehicle: Klucel (hydroxypropylcellulose) (HPC)): 100 % of control and 105 % of control
T/C [1]: 105 % of control
T/C [11]: 200 % of control
T/C (dose: 75.0 mg/kg/injection, schedule: Q04DX003 (ip), vehicle: Klucel (hydroxypropylcellulose) (HPC)): 122 % of control

CN=S(=O)(OCCOCCOS(=O)(=NC)c1ccc(C)cc1)c1ccc(C)cc1 (configuration not stated)
T/C [12]: 111 % of control
T/C [5]: 108 % of control
T/C [7]: 114 % of control

CC(=O)OCC1OC(n2ccc(N)nc2=O)C(OC(C)=O)C1OC(C)=O (configuration not stated)
T/C [12]: 170 % of control
T/C [5]: 188 % of control
T/C (dose: 177.0 mg/kg/injection, schedule: Q04DX003 (ip), vehicle: saline): 177 % of control
T/C [7]: 106 % of control
T/C (dose: 266.0 mg/kg/injection, schedule: Q04DX003 (ip), vehicle: saline): 181 % of control and 195 % of control
T/C [13]: 187 % of control and 204 % of control
T/C [4]: 263 % of control and 200 % of control

CC(C)C1OC(=O)C=C2C3(C)CC=CC4(C)C(=O)OC(C43)C3OC213 (configuration not stated)
T/C (dose: 5.0 micrograms/kg/injection, schedule: Q01DX009 (ip), vehicle: saline + alcohol): 109 % of control
T/C (dose: 20.0 micrograms/kg/injection, schedule: Q01DX009 (ip), vehicle: saline + alcohol): 100 % of control
T/C (dose: 80.0 micrograms/kg/injection, schedule: Q01DX009 (ip), vehicle: saline + alcohol): 90 % of control
T/C (dose: 250.0 micrograms/kg/injection, schedule: Q01DX009 (ip), vehicle: saline + alcohol): 109 % of control
T/C (dose: 1000.0 micrograms/kg/injection, schedule: Q01DX009 (ip), vehicle: saline + alcohol): 109 % of control
T/C (dose: 4000.0 micrograms/kg/injection, schedule: Q01DX009 (ip), vehicle: saline + alcohol): 104 % of control

COC(OC)C1(O)CC(C(C)/C=C(/C)C(CC(=O)N(C)c2ccccc2)OCc2ccccc2)OC(=O)N1 (configuration not stated)
T/C [11]: 99 % of control
T/C (dose: 100.0 mg/kg/injection, schedule: Q04DX003 (ip), vehicle: Klucel (hydroxypropylcellulose) (HPC)): 109 % of control
T/C (dose: 200.0 mg/kg/injection, schedule: Q04DX003 (ip), vehicle: Klucel (hydroxypropylcellulose) (HPC)): 118 % of control

C[C@]12CCC(=O)C=C1CC[C@H]1[C@@H]3C[C@@H](O)[C@](O)(C(=O)CO)[C@@]3(C)C[C@H](O)[C@@]12F
T/C [2]: 108 % of control
T/C (dose: 100.0 mg/kg/injection, schedule: Q04DX003 (ip), vehicle: saline): 108 % of control
T/C [3]: 87 % of control
T/C (dose: 200.0 mg/kg/injection, schedule: Q04DX003 (ip), vehicle: saline): 116 % of control
T/C [13]: 100 % of control

COC(=O)C(CSCSC)NC(=O)Nc1ccc(F)cc1 (configuration not stated)
T/C [5]: 100 % of control
T/C [6]: 100 % of control
T/C [7]: 100 % of control
T/C [8]: 95 % of control
T/C [9]: 109 % of control
T/C [10]: 90 % of control

CCOC(=O)C1(C)C=C(Nc2ccc(OC)cc2)C(=O)N1c1ccc(OC)cc1 (configuration not stated)
T/C (dose: 6.25 mg/kg/injection, schedule: Q01DX009 (ip), vehicle: saline with Tween-80): 104 % of control
T/C (dose: 12.5 mg/kg/injection, schedule: Q01DX009 (ip), vehicle: saline with Tween-80): 100 % of control
T/C (dose: 25.0 mg/kg/injection, schedule: Q01DX009 (ip), vehicle: saline with Tween-80): 100 % of control
T/C [12]: 95 % of control

CC(=O)Oc1cc2c(cc1OC(C)=O)C(Br)CCCC2=O (configuration not stated)
T/C (dose: 75.0 mg/kg/injection, schedule: Q04DX003 (ip), vehicle: other): 95 % of control
T/C (dose: 150.0 mg/kg/injection, schedule: Q04DX003 (ip), vehicle: other): 95 % of control
T/C (dose: 300.0 mg/kg/injection, schedule: Q04DX003 (ip), vehicle: other): 109 % of control

CC(=O)[C@H]1CC[C@H]2[C@@H]3CCC4=CC(=O)[C@H](C)C[C@]4(C)[C@@]3(F)C(=O)C[C@]12C
T/C [5]: 95 % of control
T/C [6]: 120 % of control
T/C [7]: 90 % of control
T/C [8]: 110 % of control
T/C [10]: 100 % of control

CCC[P+](c1ccccc1)(c1ccccc1)c1ccccc1
T/C (dose: 2.0 mg/kg/injection, schedule: Q01DX009 (ip), vehicle: saline): 111 % of control
T/C (dose: 4.0 mg/kg/injection, schedule: Q01DX009 (ip), vehicle: saline): 115 % of control
T/C (dose: 8.0 mg/kg/injection, schedule: Q01DX009 (ip), vehicle: saline): 123 % of control

COC(=O)/C(C)=C/C1N=C1c1ccccc1 (configuration not stated)
T/C (dose: 100.0 mg/kg/injection, schedule: Q01DX001 (ip), vehicle: saline with Tween-80): 120 % of control
